The results in this text go back to ChEMBL document CHEMBL1146053, “Discovery and optimization of a novel series of liver X receptor-alpha agonists” (Bioorg Med Chem Lett, 2006).

As usually defined, the AUC is the area under the concentration-time curve, a measure of exposure. A high value points to more exposure. A word on the EC50: it is the midpoint of the concentration-response curve. A low value points to a more potent agent. As a reminder, the half-life is how long it takes for the measured level to halve. The low end stands for rapid decline, the high end for slow decline.

Some results are limits rather than exact numbers.

Test system in the first data set: not listed separately
The experiment in a line: AUC in mice at 5 mg/kg, po. It counts as ADME, organism-based. The arrangement: dose 5 mg/kg, route oral. Conditions: mouse, plasma.
In the case of `O=S(=O)(c1ccccc1)N(CC(F)(F)F)c1ccc(C(O)(C(F)(F)F)C(F)(F)F)cc1` [T091317], the area under the curve (AUC) turned out to be 3420 ng·h/mL.

The next data set deals with T1, Oxysterols receptor LXR-alpha (Homo sapiens, UniProt Q13133).
T1 sequence (Q13133 whole entry): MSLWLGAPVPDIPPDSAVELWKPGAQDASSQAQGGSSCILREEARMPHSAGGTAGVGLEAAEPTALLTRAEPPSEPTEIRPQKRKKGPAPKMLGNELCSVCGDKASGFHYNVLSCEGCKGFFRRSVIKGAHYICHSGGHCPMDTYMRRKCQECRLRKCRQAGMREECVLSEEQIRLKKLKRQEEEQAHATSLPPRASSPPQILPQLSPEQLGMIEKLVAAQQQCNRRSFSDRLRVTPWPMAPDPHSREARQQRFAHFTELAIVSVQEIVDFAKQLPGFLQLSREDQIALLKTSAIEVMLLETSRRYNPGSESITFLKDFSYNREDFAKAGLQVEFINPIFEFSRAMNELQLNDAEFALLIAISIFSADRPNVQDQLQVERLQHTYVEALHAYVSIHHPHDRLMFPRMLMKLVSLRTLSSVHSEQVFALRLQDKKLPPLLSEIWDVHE
The experiment in a line: Activity against LXR alpha transiently transfected in HEK293 cells. It is filed as cell-based.
Conditions: not given
The compound `COC(c1ccc(N(C)S(=O)(=O)c2ccccc2)cc1)(C(F)(F)F)C(F)(F)F` came in with an EC50 of 1 µM.

`CN(Cc1ccc(C(O)(C(F)(F)F)C(F)(F)F)cc1)S(=O)(=O)c1ccccc1` came in with an EC50 of 3 µM.

`C[C@H](CC[C@@H]1OC1(C)C)[C@H]1CC[C@H]2[C@@H]3CC=C4C[C@@H](O)CC[C@]4(C)[C@H]3CC[C@]12C` [24(S),25-EPOXYCHOLESTEROL]: the EC50 was 0.5 µM.

The compound `CN(C(=O)c1ccc(C(O)(C(F)(F)F)C(F)(F)F)cc1)c1ccccc1` had an EC50 of 0.2 µM.

Take `CN(C(=O)c1ccccc1)c1ccc(C(O)(C(F)(F)F)C(F)(F)F)cc1`: the EC50 amounted to 0.1 µM.

In turn, `CN(c1ccc(C(O)(C(F)(F)F)C(F)(F)F)cc1Cl)S(=O)(=O)c1ccccc1` displayed an EC50 of 0.2 µM.

For `CN(c1ccc(C(O)C(F)(F)F)cc1)S(=O)(=O)c1ccccc1` (stereo unspecified), the EC50 was over 5 µM.

In turn, `CN(c1ccc(C(O)(C(F)(F)F)C(F)(F)F)cc1)S(=O)(=O)c1ccccc1C#N` returned an EC50 of 0.7 µM.

`O=S(=O)(c1ccccc1)N1CCCCc2cc(C(O)(C(F)(F)F)C(F)(F)F)ccc21` yielded an EC50 of 0.01 µM.

In the case of `O=S(=O)(c1ccccc1)N1CCc2cc(C(O)(C(F)(F)F)C(F)(F)F)ccc21`, a half-maximal response (EC50) required 0.05 µM.

Compound `CN(c1ccc(C(O)(C(F)(F)F)C(F)(F)F)cc1)S(=O)(=O)c1cccc(C#N)c1` showed an EC50 of 0.02 µM.

Regarding `CN(c1ccc(C(O)(C(F)(F)F)C(F)(F)F)c(Cl)c1)S(=O)(=O)c1ccccc1`, the EC50 was over 5 µM.

Compound `O=S(=O)(c1ccccc1)N1CCOc2cc(C(O)(C(F)(F)F)C(F)(F)F)ccc21` gave a concentration for a half-maximal effect (EC50) of 0.1 µM.

With `O=S(=O)(c1ccccc1)N(c1ccc(C(O)(C(F)(F)F)C(F)(F)F)cc1)C1CCCC1`, a half-maximal effect (EC50) was put at 0.008 µM.

`CN(c1ccc(C(C)(O)C(F)(F)F)cc1)S(=O)(=O)c1ccccc1` (stereo unspecified) returned an EC50 of 5 µM.

The compound `O=S(=O)(Nc1ccc(C(O)(C(F)(F)F)C(F)(F)F)cc1)c1ccccc1` displayed an EC50 of 4 µM.

Regarding `CN(c1ccc(C(O)(C(F)(F)F)C(F)(F)F)cc1)S(=O)(=O)c1ccc(C#N)cc1`, the EC50 was determined as 2 µM.

On to `CC(C)CN(c1ccc(C(O)(C(F)(F)F)C(F)(F)F)cc1)S(=O)(=O)c1cccs1`, for which the EC50 was found to be 0.04 µM.

For the compound `CN(c1ccc(C(O)(C(F)(F)F)C(F)(F)F)cc1)S(=O)(=O)c1cccs1`, the midpoint of the response, the EC50, lay at 0.6 µM.

In turn, `O=S(=O)(c1ccccc1)N1CCCc2cc(C(O)(C(F)(F)F)C(F)(F)F)ccc21` showed an EC50 of 0.03 µM.

As to `CN(c1ccc(C(O)(C(F)(F)F)C(F)(F)F)cc1)S(=O)(=O)c1cccc(-c2ccccc2)c1`, the response was half-maximal at 0.03 µM (EC50).

Compound `CN(c1ccccc1)S(=O)(=O)c1ccc(C(O)(C(F)(F)F)C(F)(F)F)cc1` displayed a concentration giving a half-maximal response (EC50) of 0.1 µM.

With `CN(c1ccc(C(O)(C(F)(F)F)C(F)(F)F)cc1)S(=O)(=O)c1cccc(S(N)(=O)=O)c1`, a half-maximal effect (EC50) was put at 0.08 µM.

In turn, `CC(C)COC(=O)N(C)c1ccc(C(O)(C(F)(F)F)C(F)(F)F)cc1` yielded an EC50 of 0.1 µM.

For `CN(c1cccc(C(O)(C(F)(F)F)C(F)(F)F)c1)S(=O)(=O)c1ccccc1`, the EC50 worked out at 1 µM.

Test system in another data set: not listed separately
The data set can be described thus: Half life in dog at 5 mg/kg, po. It counts as ADME, organism-based, Canis lupus familiaris. The arrangement: dose 5 mg/kg, route oral. Particulars: in vivo.
`O=S(=O)(c1ccccc1)N(CC(F)(F)F)c1ccc(C(O)(C(F)(F)F)C(F)(F)F)cc1` [T091317]: the half-life is 5.8 h.

Test system in another data set: not listed separately
The data set can be described thus: Half life in mice at 5 mg/kg, po. It counts as ADME, organism-based. The arrangement: dose 5 mg/kg, route oral. Conditions: mouse, in vivo.
Compound `O=S(=O)(c1ccccc1)N(CC(F)(F)F)c1ccc(C(O)(C(F)(F)F)C(F)(F)F)cc1` [T091317] had a half-life of 3 h.

Test system in a further data set: not listed separately
The data set can be described thus: AUC in Sprague-Dawley rat at 5 mg/kg, po. It counts as ADME, organism-based. The arrangement: dose 5 mg/kg, route oral. Conditions: plasma.
`O=S(=O)(c1ccccc1)N(CC(F)(F)F)c1ccc(C(O)(C(F)(F)F)C(F)(F)F)cc1` [T091317] displayed an AUC of 5920 ng·h/mL.

`CC(C)CN(c1ccc(C(O)(C(F)(F)F)C(F)(F)F)cc1)S(=O)(=O)c1cccs1` came in with an AUC of 3200 ng·h/mL.

Test system in a further data set: not listed separately
The data set can be described thus: AUC in dog at 5 mg/kg, po. It counts as ADME, organism-based, Canis lupus familiaris. Further details: dose 5 mg/kg, route oral. Conditions: plasma.
Compound `O=S(=O)(c1ccccc1)N(CC(F)(F)F)c1ccc(C(O)(C(F)(F)F)C(F)(F)F)cc1` [T091317] gave an AUC of 7300 ng·h/mL.
